Reference: the supplement of paper PMC10307832

What was measured:
Experiment in all cases: relative viability (nuclei count vs DMSO), 5 days (fraction); higher = more cells survive
[1] = compound: C=CCNC1=C2C[C@@H](C)C[C@H](OC)[C@H](O)[C@@H](C)/C=C(\C)[C@H](OC(N)=O)[C@@H](OC)/C=C\C=C(/C)C(=O)NC(=CC1=O)C2=O [17-AAG]
Procedure, shortened: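 Nuclei counted with MetaXpress define viability as the ratio of treated to vehicle wells, given as a median across plates. The lung cancer cell lines were in 1536-well plates, pinned with five √10-spaced library-drug doses and imaged at 4× after 5 days and Hoechst staining. Plates passed with control CV below 25% and at least one doubling.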

[2] = compound: C=CCNC1=C2C[C@@H](C)C[C@H](OC)[C@H](O)[C@@H](C)/C=C(\C)[C@H](OC(N)=O)[C@@H](OC)/C=C\C=C(/C)C(=O)NC(=CC1=O)C2=O [17-AAG] + CC(=O)Nc1cccc(-n2c(=O)n(C3CC3)c(=O)c3c(Nc4ccc(I)cc4F)n(C)c(=O)c(C)c32)c1 [Trametinib] (partner 0.02 µM)
Procedure, shortened: (§1)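 Dosing by pin tool came one day after lung cancer cell lines were seeded in 1536-well plates, using either one drug or a fixed anchor-drug dose plus five library-drug doses (not always all listed) in √10 steps. After 5 days, nuclei were counted on 4× images. Relative viability is treated-well nuclei count divided by vehicle-well nuclei count, and values are medians of duplicate plates.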

[3] = compound: C=CCNC1=C2C[C@@H](C)C[C@H](OC)[C@H](O)[C@@H](C)/C=C(\C)[C@H](OC(N)=O)[C@@H](OC)/C=C\C=C(/C)C(=O)NC(=CC1=O)C2=O [17-AAG] + COc1cccc2cc(-c3nc([C@H]4CC[C@H](C(=O)O)CC4)n4ncnc(N)c34)[nH]c12 [OSI-027] (partner 0.5 µM)
Procedure, shortened: as §1

[4] = compound: C=CCNC1=C2C[C@@H](C)C[C@H](OC)[C@H](O)[C@@H](C)/C=C(\C)[C@H](OC(N)=O)[C@@H](OC)/C=C\C=C(/C)C(=O)NC(=CC1=O)C2=O [17-AAG] + N=C(N)NC(=N)NCCc1ccccc1 [Phenformin] (partner 250 µM)
Procedure, shortened: as §1

Work on NCI-H322M yielded a relative viability ([1]; 0.00128 µM) of 0.95, a relative viability ([1]; 0.004048 µM) of 0.967 and a relative viability ([1]; 0.0128 µM) of 0.483. The relative viability ([1]; 0.04048 µM) was 0.346, the relative viability ([1]; 0.128 µM) was 0.325 and the relative viability ([2]; first compound 0.00128 µM) was 0.512. It also gave a relative viability ([2]; first compound 0.004048 µM) of 0.547, a relative viability ([2]; first compound 0.0128 µM) of 0.452 and a relative viability ([2]; first compound 0.04048 µM) of 0.536. For the same cell line, the relative viability ([2]; first compound 0.128 µM) was 0.403, the relative viability ([3]; first compound 0.00128 µM) was 0.465 and the relative viability ([3]; first compound 0.004048 µM) was 0.364. It also gave a relative viability ([3]; first compound 0.0128 µM) of 0.329, a relative viability ([3]; first compound 0.04048 µM) of 0.285 and a relative viability ([3]; first compound 0.128 µM) of 0.271. The relative viability ([4]; first compound 0.00128 µM) was 0.77, the relative viability ([4]; first compound 0.004048 µM) was 0.808 and the relative viability ([4]; first compound 0.0128 µM) was 0.311. For the same cell line, the relative viability ([4]; first compound 0.04048 µM) was 0.28 and the relative viability ([4]; first compound 0.128 µM) was 0.303.
NCI-H358 showed a relative viability ([1]; 0.00128 µM) of 0.889, a relative viability ([1]; 0.004048 µM) of 0.532 and a relative viability ([1]; 0.0128 µM) of 0.119. The relative viability ([1]; 0.04048 µM) was 0.115, the relative viability ([1]; 0.128 µM) was 0.103 and the relative viability ([2]; first compound 0.00128 µM) was 0.128. For the same cell line, the relative viability ([2]; first compound 0.004048 µM) was 0.0832, the relative viability ([2]; first compound 0.0128 µM) was 0.0659 and the relative viability ([2]; first compound 0.04048 µM) was 0.0673. The relative viability ([2]; first compound 0.128 µM) was 0.0679, the relative viability ([3]; first compound 0.00128 µM) was 0.768 and the relative viability ([3]; first compound 0.004048 µM) was 0.41. It also gave a relative viability ([3]; first compound 0.0128 µM) of 0.0521, a relative viability ([3]; first compound 0.04048 µM) of 0.0586 and a relative viability ([3]; first compound 0.128 µM) of 0.0417. The relative viability ([4]; first compound 0.00128 µM) was 0.321, the relative viability ([4]; first compound 0.004048 µM) was 0.155 and the relative viability ([4]; first compound 0.0128 µM) was 0.0612. The relative viability ([4]; first compound 0.04048 µM) was 0.0774 and the relative viability ([4]; first compound 0.128 µM) was 0.0534.
NCI-H441 showed a relative viability ([1]; 0.00128 µM) of 0.857, a relative viability ([1]; 0.004048 µM) of 0.693 and a relative viability ([1]; 0.0128 µM) of 0.223. The relative viability ([1]; 0.04048 µM) was 0.192, the relative viability ([1]; 0.128 µM) was 0.105 and the relative viability ([2]; first compound 0.00128 µM) was 0.454. The relative viability ([2]; first compound 0.004048 µM) was 0.439, the relative viability ([2]; first compound 0.0128 µM) was 0.148 and the relative viability ([2]; first compound 0.04048 µM) was 0.132. It also gave a relative viability ([2]; first compound 0.128 µM) of 0.0927, a relative viability ([3]; first compound 0.00128 µM) of 0.581 and a relative viability ([3]; first compound 0.004048 µM) of 0.429. It also gave a relative viability ([3]; first compound 0.0128 µM) of 0.203, a relative viability ([3]; first compound 0.04048 µM) of 0.19 and a relative viability ([3]; first compound 0.128 µM) of 0.137. For the same cell line, the relative viability ([4]; first compound 0.00128 µM) was 0.877, the relative viability ([4]; first compound 0.004048 µM) was 0.397 and the relative viability ([4]; first compound 0.0128 µM) was 0.184. The relative viability ([4]; first compound 0.04048 µM) was 0.182 and the relative viability ([4]; first compound 0.128 µM) was 0.129.
In the case of NCI-H460, the relative viability ([1]; 0.00128 µM) is reported as 0.96, the relative viability ([1]; 0.004048 µM) is reported as 0.965 and the relative viability ([1]; 0.0128 µM) is reported as 0.198. The relative viability ([1]; 0.04048 µM) was 0.0341, the relative viability ([1]; 0.128 µM) was 0.0297 and the relative viability ([2]; first compound 0.00128 µM) was 0.202. It also gave a relative viability ([2]; first compound 0.004048 µM) of 0.0484, a relative viability ([2]; first compound 0.0128 µM) of 0.0114 and a relative viability ([2]; first compound 0.04048 µM) of 0.0258. It also gave a relative viability ([2]; first compound 0.128 µM) of 0.0229, a relative viability ([3]; first compound 0.00128 µM) of 0.62 and a relative viability ([3]; first compound 0.004048 µM) of 0.413. The relative viability ([3]; first compound 0.0128 µM) was 0.0464, the relative viability ([3]; first compound 0.04048 µM) was 0.0193 and the relative viability ([3]; first compound 0.128 µM) was 0.0168. For the same cell line, the relative viability ([4]; first compound 0.00128 µM) was 0.468, the relative viability ([4]; first compound 0.004048 µM) was 0.332 and the relative viability ([4]; first compound 0.0128 µM) was 0.0221. For the same cell line, the relative viability ([4]; first compound 0.04048 µM) was 0.021 and the relative viability ([4]; first compound 0.128 µM) was 0.0236.
For NCI-H520, the relative viability ([1]; 0.00128 µM) was 1.01, the relative viability ([1]; 0.004048 µM) was 0.974 and the relative viability ([1]; 0.0128 µM) was 0.566. For the same cell line, the relative viability ([1]; 0.04048 µM) was 0.193, the relative viability ([1]; 0.128 µM) was 0.185 and the relative viability ([2]; first compound 0.00128 µM) was 0.706. It also gave a relative viability ([2]; first compound 0.004048 µM) of 0.673, a relative viability ([2]; first compound 0.0128 µM) of 0.468 and a relative viability ([2]; first compound 0.04048 µM) of 0.154. It also gave a relative viability ([2]; first compound 0.128 µM) of 0.129, a relative viability ([3]; first compound 0.00128 µM) of 0.305 and a relative viability ([3]; first compound 0.004048 µM) of 0.268. The relative viability ([3]; first compound 0.0128 µM) was 0.27, the relative viability ([3]; first compound 0.04048 µM) was 0.202 and the relative viability ([3]; first compound 0.128 µM) was 0.152. The relative viability ([4]; first compound 0.00128 µM) was 0.617, the relative viability ([4]; first compound 0.004048 µM) was 0.511 and the relative viability ([4]; first compound 0.0128 µM) was 0.406. The relative viability ([4]; first compound 0.04048 µM) was 0.234 and the relative viability ([4]; first compound 0.128 µM) was 0.165.
Work on NCI-H522 yielded a relative viability ([1]; 0.00128 µM) of 0.805, a relative viability ([1]; 0.004048 µM) of 1.09 and a relative viability ([1]; 0.0128 µM) of 0.782. For the same cell line, the relative viability ([1]; 0.04048 µM) was 0.602, the relative viability ([1]; 0.128 µM) was 0.433 and the relative viability ([2]; first compound 0.00128 µM) was 0.724. The relative viability ([2]; first compound 0.004048 µM) was 0.836, the relative viability ([2]; first compound 0.0128 µM) was 0.679 and the relative viability ([2]; first compound 0.04048 µM) was 0.686. For the same cell line, the relative viability ([2]; first compound 0.128 µM) was 0.374, the relative viability ([3]; first compound 0.00128 µM) was 0.663 and the relative viability ([3]; first compound 0.004048 µM) was 0.685. For the same cell line, the relative viability ([3]; first compound 0.0128 µM) was 0.655, the relative viability ([3]; first compound 0.04048 µM) was 0.542 and the relative viability ([3]; first compound 0.128 µM) was 0.552. It also gave a relative viability ([4]; first compound 0.00128 µM) of 0.627, a relative viability ([4]; first compound 0.004048 µM) of 0.599 and a relative viability ([4]; first compound 0.0128 µM) of 0.635. The relative viability ([4]; first compound 0.04048 µM) was 0.294 and the relative viability ([4]; first compound 0.128 µM) was 0.471.
NCI-H596 was tested, and the relative viability ([1]; 0.00128 µM) was 0.931, the relative viability ([1]; 0.004048 µM) was 0.917 and the relative viability ([1]; 0.0128 µM) was 0.955. For the same cell line, the relative viability ([1]; 0.04048 µM) was 0.816, the relative viability ([1]; 0.128 µM) was 0.404 and the relative viability ([2]; first compound 0.00128 µM) was 0.841. The relative viability ([2]; first compound 0.004048 µM) was 0.852, the relative viability ([2]; first compound 0.0128 µM) was 0.767 and the relative viability ([2]; first compound 0.04048 µM) was 0.704. It also gave a relative viability ([2]; first compound 0.128 µM) of 0.308, a relative viability ([3]; first compound 0.00128 µM) of 0.742 and a relative viability ([3]; first compound 0.004048 µM) of 0.713. The relative viability ([3]; first compound 0.0128 µM) was 0.854, the relative viability ([3]; first compound 0.04048 µM) was 0.519 and the relative viability ([3]; first compound 0.128 µM) was 0.274. The relative viability ([4]; first compound 0.00128 µM) was 0.829, the relative viability ([4]; first compound 0.004048 µM) was 0.68 and the relative viability ([4]; first compound 0.0128 µM) was 0.554. The relative viability ([4]; first compound 0.04048 µM) was 0.781 and the relative viability ([4]; first compound 0.128 µM) was 0.309.
